# Reference: ChEMBL document CHEMBL5058564, “EUbOPEN Chemogenomics Library 2 (Incucyte)” (2022)
# Assays:
# Type in all cases: toxicity, cell-based
# Fibroblast = assay: Incucyte cell viability with human fibroblast; settings: 10 µM, compound concentration 10 uM
# HEK-293T = assay: Incucyte cell viability with HEK293T; settings: human, 10 µM, compound concentration 10 uM
# U2OS = assay: Incucyte cell viability with U2OS; settings: human, 10 µM, compound concentration 10 uM
# [1] = 0 h, replicate number 1, timepoint 0 hours
# [2] = 0 h, replicate number 2, timepoint 0 hours
# [3] = 24 h, replicate number 1, timepoint 24 hours
# [4] = 6 h, replicate number 1, timepoint 6 hours
# [5] = 12 h, replicate number 1, timepoint 12 hours
# [6] = 12 h, replicate number 2, timepoint 12 hours
# [7] = 18 h, replicate number 1, timepoint 18 hours
# [8] = 18 h, replicate number 2, timepoint 18 hours
# [9] = 24 h, replicate number 2, timepoint 24 hours
# [10] = 6 h, replicate number 2, timepoint 6 hours
# Also: unitless GR value; below 1 slowed growth and below 0 cell loss.
SMILES,Growth Rate (Fibroblast; [1]),Growth Rate (Fibroblast; [2]),Growth Rate (Fibroblast; [3]),Growth Rate (HEK-293T; [1]),Growth Rate (HEK-293T; [2]),Growth Rate (HEK-293T; [4]),Growth Rate (HEK-293T; [5]),Growth Rate (HEK-293T; [6]),Growth Rate (HEK-293T; [7]),Growth Rate (HEK-293T; [8]),Growth Rate (HEK-293T; [3]),Growth Rate (U2OS; [1]),Growth Rate (U2OS; [4]),Growth Rate (U2OS; [7]),Growth Rate (Fibroblast; [4]),Growth Rate (Fibroblast; [7]),Growth Rate (HEK-293T; [10]),Growth Rate (U2OS; [6]),Growth Rate (U2OS; [8]),Growth Rate (U2OS; [2]),also measured
Nc1cnc(N2CCc3cc(S(=O)(=O)Nc4c(F)cc(Cl)cc4F)cc(N4CCCC4=O)c32)nc1 [TP-020n],0.01,-0.22,0.92,0.54,0.76,0.61,0.37,0.71,0.61,0.9,0.74,-0.04,0.53,0.65,–,–,–,–,–,–,Growth Rate (HEK-293T; [9]): 0.77; Growth Rate (U2OS; [5]): 0.72; Growth Rate (U2OS; [3]): 0.66
Cc1ccc(/C(=C\CN2CCCC2)c2ccccn2)cc1 [TRIPROLIDINE],0.54,0.74,0.88,–,–,–,–,–,–,–,–,–,-0.54,0.76,0.96,0.98,0.8,0.88,0.96,–,Growth Rate (U2OS; [10]): 0.77; Growth Rate (U2OS; [5]): 0.38; Growth Rate (U2OS; [3]): 0.83; Growth Rate (U2OS; [9]): 0.94
CCN(Cc1ccncc1)C(=O)C(CO)c1ccccc1 (stereo not given) [TROPICAMIDE],0.46,-0.24,–,0.72,–,0.92,0.97,0.95,0.93,0.83,0.88,0.73,0.58,–,–,–,–,0.99,0.92,0.44,Growth Rate (HEK-293T; [9]): 1
CCCC(CCC)C(=O)O [VALPROIC ACID],–,0.88,–,0.84,0.39,0.68,–,–,0.94,–,0.87,0.41,–,0.9,0.27,–,–,–,0.81,-1,Growth Rate (Fibroblast; [5]): 0.85; Growth Rate (U2OS; [10]): 0.75; Growth Rate (U2OS; [5]): 0.96
CC(C)(C)c1ccc(S(=O)(=O)Nc2ccc(Cl)cc2C(=O)c2cc[n+]([O-])cc2)cc1 [VERCIRNON],0.29,0.25,0.69,–,–,0.87,–,0.73,–,0.91,–,–,0.94,0.78,–,1,0.35,–,–,-1,–
COC[C@@H](c1ccc(C(F)(F)F)cc1)N1CCN(C2(C)CCN(C(=O)c3c(C)ncnc3C)CC2)C[C@@H]1C.O=C(O)/C=C\C(=O)O [VICRIVIROC MALEATE],–,–,0.67,0.38,-1,–,0.66,–,0.49,–,0.39,-0.67,0.58,0.7,-0.4,0.48,–,0.98,0.98,-0.31,Growth Rate (Fibroblast; [10]): 0.52; Growth Rate (Fibroblast; [5]): 0.17; Growth Rate (Fibroblast; [6]): 0.68; Growth Rate (Fibroblast; [8]): 0.79; Growth Rate (Fibroblast; [9]): 0.83; Growth Rate (U2OS; [5]): 0.57; Growth Rate (U2OS; [3]): 0.8; Growth Rate (U2OS; [9]): 0.97
Cc1cc(Cn2nnc3c(-c4ccco4)nc(N)nc32)ccc1N [VIPADENANT],0.03,0.35,0.17,0.37,0.5,–,–,0.95,–,–,–,–,–,0.79,0.45,0.23,0.84,–,–,-1,Growth Rate (Fibroblast; [5]): 0.08; Growth Rate (Fibroblast; [8]): 0.81
CS(=O)(=O)c1ccc(C(=O)Nc2ccc(Cl)c(-c3ccccn3)c2)c(Cl)c1 [VISMODEGIB],–,–,0.29,1,0.86,0.99,0.8,0.84,0.81,0.92,0.83,–,0.94,–,0.27,0.67,0.75,0.78,0.84,-1,Growth Rate (Fibroblast; [10]): 0.96; Growth Rate (Fibroblast; [5]): 0.7; Growth Rate (Fibroblast; [6]): 0.84; Growth Rate (Fibroblast; [8]): 0.59; Growth Rate (Fibroblast; [9]): 0.73; Growth Rate (U2OS; [10]): 0.8; Growth Rate (U2OS; [9]): 0.86
CCOC(=O)N[C@@H]1CC[C@@H]2[C@@H](C1)C[C@H]1C(=O)O[C@H](C)[C@H]1[C@H]2/C=C/c1ccc(-c2cccc(F)c2)cn1 [VORAPAXAR],–,–,0.18,–,–,0.72,0.42,0.85,0.48,0.87,0.45,-0.64,–,–,0.13,-0.15,–,0.96,0.88,–,Growth Rate (Fibroblast; [10]): -0.65; Growth Rate (Fibroblast; [5]): -0.08; Growth Rate (Fibroblast; [6]): -0.18; Growth Rate (Fibroblast; [8]): -0.11; Growth Rate (Fibroblast; [9]): 0.15; Growth Rate (HEK-293T; [9]): 0.95; Growth Rate (U2OS; [9]): 0.9
O=C(NCCNCC(O)COc1ccc(O)cc1)N1CCOCC1.O=C(NCCNCC(O)COc1ccc(O)cc1)N1CCOCC1.O=C(O)/C=C/C(=O)O (stereo not given) [XAMOTEROL FUMARATE],-0.24,-0.01,–,0.82,–,–,–,0.95,–,–,–,0.31,–,–,–,–,0.64,–,–,-1,–
